From ChEMBL document CHEMBL4819062, “Novel iodinated quinazolinones bearing sulfonamide as new scaffold targeting radiation induced oxidative stress” (Bioorg Med Chem Lett, 2021)
Active and inactive are the calls of the source. The rule behind the calls is not given here.

Key:
[1] = Antioxidant activity assessed as DPPH radical scavenging activity; type: functional
[2] = target: T1, Nuclear factor erythroid 2-related factor 2 (Mus musculus) (UniProt Q60795); assay: Activation of Nrf2 in mouse Hepa1c1c7 cells assessed as increase in NQO1 activity at 0.625 uM; type: cell-based; conditions: filed as activator
T1 sequence (whole entry): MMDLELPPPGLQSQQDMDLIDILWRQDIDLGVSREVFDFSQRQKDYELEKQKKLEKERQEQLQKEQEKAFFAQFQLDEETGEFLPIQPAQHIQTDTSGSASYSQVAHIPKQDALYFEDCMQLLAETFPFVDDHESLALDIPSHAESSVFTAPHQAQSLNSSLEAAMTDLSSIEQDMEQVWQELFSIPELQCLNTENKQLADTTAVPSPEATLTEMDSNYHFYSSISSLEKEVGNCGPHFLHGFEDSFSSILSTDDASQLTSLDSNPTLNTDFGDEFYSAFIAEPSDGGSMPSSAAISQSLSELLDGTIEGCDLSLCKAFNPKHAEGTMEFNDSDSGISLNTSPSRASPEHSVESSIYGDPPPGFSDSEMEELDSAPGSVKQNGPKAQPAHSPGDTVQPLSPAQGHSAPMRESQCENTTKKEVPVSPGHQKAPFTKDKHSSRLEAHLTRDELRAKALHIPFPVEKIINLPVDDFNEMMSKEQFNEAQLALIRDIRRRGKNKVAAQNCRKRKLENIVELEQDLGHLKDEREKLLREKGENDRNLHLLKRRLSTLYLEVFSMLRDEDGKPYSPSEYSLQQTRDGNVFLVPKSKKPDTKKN

[3] = target: T1, Nuclear factor erythroid 2-related factor 2 (Mus musculus); assay: Activation of Nrf2 in mouse Hepa1c1c7 cells assessed as increase in NQO1 activity at 5 uM; type: cell-based; conditions: filed as activator
[4] = target: T1, Nuclear factor erythroid 2-related factor 2 (Mus musculus); assay: Activation of Nrf2 in mouse Hepa1c1c7 cells assessed as increase in NQO1 activity at 2.5 uM; type: cell-based; conditions: filed as activator
[5] = target: T1, Nuclear factor erythroid 2-related factor 2 (Mus musculus); assay: Activation of Nrf2 in mouse Hepa1c1c7 cells assessed as increase in NQO1 activity at 1.25 uM; type: cell-based; conditions: filed as activator
[6] = target: T1, Nuclear factor erythroid 2-related factor 2 (Mus musculus); assay: Activation of Nrf2 in mouse Hepa1c1c7 cells assessed as increase in NQO1 activity at 40 uM; type: cell-based; conditions: filed as activator
[7] = target: T1, Nuclear factor erythroid 2-related factor 2 (Mus musculus); assay: Activation of Nrf2 in mouse Hepa1c1c7 cells assessed as increase in NQO1 activity at 20 uM; type: cell-based; conditions: filed as activator
[8] = target: T1, Nuclear factor erythroid 2-related factor 2 (Mus musculus); assay: Activation of Nrf2 in mouse Hepa1c1c7 cells assessed as increase in NQO1 activity at 10 uM; type: cell-based; conditions: filed as activator
[9] = target: T1, Nuclear factor erythroid 2-related factor 2 (Mus musculus); assay: Activation of Nrf2 in mouse Hepa1c1c7 cells assessed as increase in NQO1 activity at 0.313 uM; type: cell-based; conditions: filed as activator
[10] = system: Mus musculus; assay: Radioprotective activity in albino mouse assessed as WBC level at 50 mg/kg, ip administered for 5 days and on day 5 irradiated with gamma radiation and measured after 3 days (reference value: 0.40 +/- 0.03 10^3/UL); type: functional; conditions: time 8 day
[11] = system: Mus musculus; assay: Radioprotective activity in albino mouse assessed as ROS level at 50 mg/kg, ip administered for 5 days and on day 5 irradiated with gamma radiation and measured after 3 days (reference value: 39 %); type: functional; conditions: time 8 day
[12] = system: Mus musculus; assay: Radioprotective activity in albino mouse assessed as effect on body weight at 50 mg/kg, ip administered for 5 days and on day 5 irradiated with gamma radiation and measured after 3 days; type: functional, organism-based; conditions: time 8.0 day
[13] = target: T1, Nuclear factor erythroid 2-related factor 2 (Mus musculus); assay: Activation of Nrf2 in mouse Hepa1c1c7 cells assessed as increase in NQO1 activity at 3.125 uM; type: cell-based; conditions: filed as activator
[14] = system: Mus musculus; assay: Radioprotective activity in albino mouse assessed as HCT level at 50 mg/kg, ip administered for 5 days and on day 5 irradiated with gamma radiation and measured after 3 days (reference value: 23.05 +/- 0.98 %); type: functional; conditions: time 8 day
[15] = Effect on PLT level in albino mouse at 50 mg/kg, ip administered for 5 days (reference value: 1135 +/- 91.52 10^3/UL); type: functional; conditions: time 5 day
[16] = system: Mus musculus; assay: Radioprotective activity in albino mouse assessed as Nrf2 level at 50 mg/kg, ip administered for 5 days and on day 5 irradiated with gamma radiation and measured after 3 days (reference value: 23 %); type: functional; conditions: time 8 day
[17] = system: Mus musculus; assay: Radioprotective activity in albino mouse assessed as organism survival rate at 50 mg/kg, ip administered for 5 days and on day 5 irradiated with gamma radiation and measured after 3 days; type: functional, organism-based; conditions: time 8.0 day
[18] = Toxicity in albino mouse assessed as lethality; conditions: in vivo
[19] = target: T1, Nuclear factor erythroid 2-related factor 2 (Mus musculus); assay: Activation of Nrf2 in mouse Hepa1c1c7 cells assessed as increase in NQO1 activity at 12.5 uM; type: cell-based; conditions: filed as activator
[20] = target: T1, Nuclear factor erythroid 2-related factor 2 (Mus musculus); assay: Activation of Nrf2 in mouse Hepa1c1c7 cells assessed as increase in NQO1 activity at 25 uM; type: cell-based; conditions: filed as activator
[21] = system: Mus musculus; assay: Radioprotective activity in albino mouse assessed as MDA level at 50 mg/kg, ip administered for 5 days and on day 5 irradiated with gamma radiation and measured after 3 days (reference value: 86 %); type: functional; conditions: time 8 day
[22] = system: Mus musculus; assay: Radioprotective activity in albino mouse assessed as RBC level at 50 mg/kg, ip administered for 5 days and on day 5 irradiated with gamma radiation and measured after 3 days (reference value: 5.89 +/- 0.27 10^6/UL); type: functional; conditions: time 8 day
[23] = Effect on HCT level in albino mouse at 50 mg/kg, ip administered for 5 days (reference value: 33.45 +/- 1.82 %); type: functional; conditions: time 5 day
[24] = Effect on HGB level in albino mouse at 50 mg/kg, ip administered for 5 days (reference value: 10.75 +/- 0.63 g/dL); type: functional; conditions: time 5 day
[25] = system: Mus musculus; assay: Radioprotective activity in albino mouse assessed as NQO1 level at 50 mg/kg, ip administered for 5 days and on day 5 irradiated with gamma radiation and measured after 3 days (reference value: 192 %); type: functional; conditions: time 8 day
[26] = target: T1, Nuclear factor erythroid 2-related factor 2 (Mus musculus); assay: Activation of Nrf2 in mouse Hepa1c1c7 cells assessed as increase in NQO1 activity at 0.8 uM; type: cell-based; conditions: filed as activator
[27] = target: T1, Nuclear factor erythroid 2-related factor 2 (Mus musculus); assay: Activation of Nrf2 in mouse Hepa1c1c7 cells assessed as increase in NQO1 activity at 0.4 uM; type: cell-based; conditions: filed as activator
[28] = target: T1, Nuclear factor erythroid 2-related factor 2 (Mus musculus); assay: Activation of Nrf2 in mouse Hepa1c1c7 cells assessed as increase in NQO1 activity at 6.25 uM; type: cell-based; conditions: filed as activator
[29] = Effect on WBC level in albino mouse at 50 mg/kg, ip administered for 5 days (reference value: 2.54 +/- 0.16 10^3/UL); type: functional; conditions: time 5 day
[30] = system: Mus musculus; assay: Radioprotective activity in albino mouse assessed as HGB level at 50 mg/kg, ip administered for 5 days and on day 5 irradiated with gamma radiation and measured after 3 days (reference value: 7.98 +/- 0.24 g/dL); type: functional; conditions: time 8 day
[31] = target: T1, Nuclear factor erythroid 2-related factor 2 (Mus musculus); assay: Activation of Nrf2 in mouse Hepa1c1c7 cells assessed as increase in NQO1 activity at 50 uM; type: cell-based; conditions: filed as activator
[32] = Toxicity in albino mouse assessed as effect on liver weight at 50 mg/kg, ip administered for 5 days; type: organism-based; conditions: in vivo, 120 h, time 5 day
[33] = target: T1, Nuclear factor erythroid 2-related factor 2 (Mus musculus); assay: Activation of Nrf2 in mouse Hepa1c1c7 cells assessed as concentration required to double induction to increase in NQO1 activity; type: cell-based; conditions: filed as activator
[34] = Effect on RBC level in albino mouse at 50 mg/kg, ip administered for 5 days (reference value: 7.17 +/- 0.15 10^6/UL); type: functional; conditions: time 5 day
[35] = target: T1, Nuclear factor erythroid 2-related factor 2 (Mus musculus); assay: Activation of Nrf2 in mouse Hepa1c1c7 cells assessed as increase in NQO1 activity at 1.6 uM; type: cell-based; conditions: filed as activator
[36] = system: Mus musculus; assay: Radioprotective activity in albino mouse assessed as PLT level at 50 mg/kg, ip administered for 5 days and on day 5 irradiated with gamma radiation and measured after 3 days (reference value: 500.3 +/- 49.73 10^3/UL); type: functional; conditions: time 8 day

In the case of O=C1O[C@H]([C@@H](O)CO)C(O)=C1O [ASCORBIC ACID], the IC50 [1] is reported as 128 µM.
In the case of NS(=O)(=O)c1ccc(-n2c(SCC(=O)Nc3ccc(Cl)cc3)nc3c(I)cc(I)cc3c2=O)cc1, the Activity [2] is reported as 1.04, the Activity [3] is reported as 1.19 and the Activity [4] is reported as 1.04. The Activity [5] was 1.03, the Activity [6] was 1.26 and the IC50 [1] was 56.5 µM. The Activity [7] was 1.26, the Activity [8] was 1.26 and the Activity [9] was 1.06.
For NS(=O)(=O)c1ccc(-n2c(SCC(=O)Nc3cccnc3Cl)nc3c(I)cc(I)cc3c2=O)cc1, the Activity [10] was 1.34 10^3 /uL, the Activity [11] was 23% and the Activity [12] was “Active”. For the same compound, the Activity [13] was 1.09, the Activity [14] was 25.83% and the Activity [15] was 1030 10^3 /uL. For the same compound, the Activity [16] was 15%, the Activity [17] was “Active” and the LD50 [18] was 500 mg/kg. The Activity [19] was 1.38, the Activity [20] was 2.13 and the Activity [21] was 32%. The Activity [22] was 6.37 10^6 /uL, the Activity [23] was 26.86% and the Activity [24] was 8.54 g/dL. For the same compound, the Activity [25] was 37%, the Activity [26] was 0.98 and the Activity [27] was 0.99. For the same compound, the Activity [28] was 1.17, the Activity [29] was 2.08 10^3 /uL and the Activity [30] was 9.9 g/dL. The IC50 [1] was 28 µM, the Activity [31] was 2.65 and the Activity [32] was “Non-Toxic”. For the same compound, the CD [33] was 25 µM, the Activity [34] was 6.13 10^6 /uL and the Activity [35] was 1. The Activity [36] was 956.8 10^3 /uL.
NS(=O)(=O)c1ccc(-n2c(SCC(=O)Nc3ccc(I)cc3)nc3c(I)cc(I)cc3c2=O)cc1 gave an Activity [2] of 1.02, an Activity [3] of 1.05 and an Activity [4] of 1.04. It also gave an Activity [5] of 1.03, an Activity [6] of 1.12 and an IC50 [1] of 55.6 µM. For the same compound, the Activity [7] was 1.07, the Activity [8] was 1.04 and the Activity [9] was 1.02.
